{
  "source": "paper PMC9133015",
  "about": "(Nature Communications, 2022)",
  "type_in_all_cases": "biochemical",
  "key": {"DYRK4": {"target": "T1, DYRK4 (Homo sapiens, UniProt Q9NR20)", "T1 construct": "purchased Reaction Biology Corporation (assay service)", "T1 sequence (Q9NR20 1-520)": "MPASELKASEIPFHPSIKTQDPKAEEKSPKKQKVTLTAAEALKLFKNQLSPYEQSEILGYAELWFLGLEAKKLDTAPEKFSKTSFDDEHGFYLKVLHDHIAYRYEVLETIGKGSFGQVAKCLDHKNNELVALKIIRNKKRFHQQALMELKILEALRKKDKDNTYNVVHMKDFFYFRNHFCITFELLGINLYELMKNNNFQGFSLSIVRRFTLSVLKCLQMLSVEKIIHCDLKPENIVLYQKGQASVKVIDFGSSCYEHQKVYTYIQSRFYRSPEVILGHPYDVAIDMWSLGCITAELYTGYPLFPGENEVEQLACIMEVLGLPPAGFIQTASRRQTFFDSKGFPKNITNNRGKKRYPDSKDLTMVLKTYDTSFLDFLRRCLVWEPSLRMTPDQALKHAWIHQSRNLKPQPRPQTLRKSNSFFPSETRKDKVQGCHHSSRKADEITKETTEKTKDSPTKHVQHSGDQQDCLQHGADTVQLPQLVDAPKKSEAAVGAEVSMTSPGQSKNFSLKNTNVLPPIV", "experiment": "DYRKs kinase activity assay (33P-ATP, DYRKtide substrate): DYRK4", "conditions": "for % Inhibition DYRK4: duplicates"}, "[1]": {"target": "T2, panel of 370 protein kinases (Homo sapiens, UniProt Q9UEW8)", "T2 construct": "purchased Reaction Biology Corporation (assay service)", "experiment": "Kinase inhibitor specificity profiling (Reaction Biology Corporation)", "design": "% Enzyme Activity (relative to DMSO controls): concentration or dose not given beside the values", "conditions": "2 h, kinase STK39/STLK3; read-out: % Enzyme Activity (relative to DMSO controls)"}, "[2]": {"target": "T3, panel of 370 protein kinases (Homo sapiens, UniProt Q96BR1)", "T3 construct": "purchased Reaction Biology Corporation (assay service)", "experiment": "Kinase inhibitor specificity profiling (Reaction Biology Corporation)", "design": "% Enzyme Activity (relative to DMSO controls): concentration or dose not given beside the values", "conditions": "2 h, kinase SGK3/SGKL; read-out: % Enzyme Activity (relative to DMSO controls)"}, "[3]": {"target": "T4, panel of 370 protein kinases (Homo sapiens, UniProt Q96S53)", "T4 construct": "purchased Reaction Biology Corporation (assay service)", "T4 sequence (Q96S53 whole entry)": "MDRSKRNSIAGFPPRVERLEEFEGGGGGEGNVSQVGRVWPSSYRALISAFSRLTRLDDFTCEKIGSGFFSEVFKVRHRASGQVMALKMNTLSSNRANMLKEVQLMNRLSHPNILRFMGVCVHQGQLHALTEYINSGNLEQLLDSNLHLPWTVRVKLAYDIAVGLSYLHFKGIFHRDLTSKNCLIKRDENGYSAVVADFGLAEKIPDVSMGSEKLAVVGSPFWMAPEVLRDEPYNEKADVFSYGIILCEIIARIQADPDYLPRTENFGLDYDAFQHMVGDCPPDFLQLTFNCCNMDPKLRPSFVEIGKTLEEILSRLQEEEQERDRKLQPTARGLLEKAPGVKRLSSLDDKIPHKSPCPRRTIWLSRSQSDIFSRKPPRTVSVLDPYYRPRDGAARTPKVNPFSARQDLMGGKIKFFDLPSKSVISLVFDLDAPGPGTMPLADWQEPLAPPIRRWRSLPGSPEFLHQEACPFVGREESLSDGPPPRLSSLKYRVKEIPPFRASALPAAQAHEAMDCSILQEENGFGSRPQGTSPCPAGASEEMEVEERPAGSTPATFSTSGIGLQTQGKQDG", "experiment": "Kinase inhibitor specificity profiling (Reaction Biology Corporation)", "design": "% Enzyme Activity (relative to DMSO controls): concentration or dose not given beside the values", "conditions": "2 h, kinase TESK2; read-out: % Enzyme Activity (relative to DMSO controls)"}, "[4]": {"target": "T5, panel of 370 protein kinases (Homo sapiens, UniProt P16234)", "T5 construct": "purchased Reaction Biology Corporation (assay service)", "T5 sequence (P16234 24-1089)": "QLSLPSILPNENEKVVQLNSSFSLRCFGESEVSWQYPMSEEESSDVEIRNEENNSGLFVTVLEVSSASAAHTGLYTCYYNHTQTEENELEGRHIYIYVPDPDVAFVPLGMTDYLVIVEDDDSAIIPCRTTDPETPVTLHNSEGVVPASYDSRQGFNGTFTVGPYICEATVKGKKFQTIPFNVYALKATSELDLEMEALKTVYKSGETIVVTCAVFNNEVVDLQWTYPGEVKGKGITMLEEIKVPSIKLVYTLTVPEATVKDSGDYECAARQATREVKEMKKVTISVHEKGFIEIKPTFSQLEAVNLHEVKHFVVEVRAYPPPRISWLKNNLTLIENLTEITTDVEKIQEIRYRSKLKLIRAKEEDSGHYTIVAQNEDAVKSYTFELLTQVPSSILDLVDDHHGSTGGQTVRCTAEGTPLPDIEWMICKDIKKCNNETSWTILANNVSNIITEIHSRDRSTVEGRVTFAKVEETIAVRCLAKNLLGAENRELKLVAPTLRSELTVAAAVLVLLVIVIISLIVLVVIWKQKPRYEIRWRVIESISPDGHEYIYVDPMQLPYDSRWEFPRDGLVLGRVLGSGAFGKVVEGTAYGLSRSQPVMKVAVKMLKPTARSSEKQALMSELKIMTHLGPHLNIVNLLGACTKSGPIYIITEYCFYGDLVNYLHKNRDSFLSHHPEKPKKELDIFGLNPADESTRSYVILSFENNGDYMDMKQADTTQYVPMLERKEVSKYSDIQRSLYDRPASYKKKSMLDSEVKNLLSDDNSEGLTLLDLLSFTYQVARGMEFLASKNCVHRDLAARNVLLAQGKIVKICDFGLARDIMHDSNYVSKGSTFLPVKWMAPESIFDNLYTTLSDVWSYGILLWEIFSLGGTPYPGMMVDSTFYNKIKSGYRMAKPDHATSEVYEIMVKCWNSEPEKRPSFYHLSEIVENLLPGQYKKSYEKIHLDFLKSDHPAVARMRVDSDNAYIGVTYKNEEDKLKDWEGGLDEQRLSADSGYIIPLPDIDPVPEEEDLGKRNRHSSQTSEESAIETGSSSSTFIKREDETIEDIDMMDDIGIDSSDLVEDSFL", "experiment": "Kinase inhibitor specificity profiling (Reaction Biology Corporation)", "design": "% Enzyme Activity (relative to DMSO controls): concentration or dose not given beside the values", "conditions": "2 h, kinase PDGFRa; read-out: % Enzyme Activity (relative to DMSO controls)"}, "[5]": {"target": "T6, panel of 370 protein kinases (Homo sapiens, UniProt Q86Y07)", "T6 construct": "purchased Reaction Biology Corporation (assay service)", "experiment": "Kinase inhibitor specificity profiling (Reaction Biology Corporation)", "design": "% Enzyme Activity (relative to DMSO controls): concentration or dose not given beside the values", "conditions": "2 h, kinase VRK2; read-out: % Enzyme Activity (relative to DMSO controls)"}, "[6]": {"target": "T7, panel of 370 protein kinases (Homo sapiens, UniProt P36897)", "T7 construct": "purchased Reaction Biology Corporation (assay service)", "experiment": "Kinase inhibitor specificity profiling (Reaction Biology Corporation)", "design": "% Enzyme Activity (relative to DMSO controls): concentration or dose not given beside the values", "conditions": "2 h, kinase ALK5/TGFBR1; read-out: % Enzyme Activity (relative to DMSO controls)"}, "[7]": {"target": "T8, panel of 370 protein kinases (Homo sapiens, UniProt Q16288)", "T8 construct": "purchased Reaction Biology Corporation (assay service)", "experiment": "Kinase inhibitor specificity profiling (Reaction Biology Corporation)", "design": "% Enzyme Activity (relative to DMSO controls): concentration or dose not given beside the values", "conditions": "2 h, kinase TRKC; read-out: % Enzyme Activity (relative to DMSO controls)"}, "[8]": {"target": "T9, panel of 370 protein kinases (Homo sapiens, UniProt Q13188)", "T9 construct": "purchased Reaction Biology Corporation (assay service)", "T9 sequence (Q13188 whole entry)": "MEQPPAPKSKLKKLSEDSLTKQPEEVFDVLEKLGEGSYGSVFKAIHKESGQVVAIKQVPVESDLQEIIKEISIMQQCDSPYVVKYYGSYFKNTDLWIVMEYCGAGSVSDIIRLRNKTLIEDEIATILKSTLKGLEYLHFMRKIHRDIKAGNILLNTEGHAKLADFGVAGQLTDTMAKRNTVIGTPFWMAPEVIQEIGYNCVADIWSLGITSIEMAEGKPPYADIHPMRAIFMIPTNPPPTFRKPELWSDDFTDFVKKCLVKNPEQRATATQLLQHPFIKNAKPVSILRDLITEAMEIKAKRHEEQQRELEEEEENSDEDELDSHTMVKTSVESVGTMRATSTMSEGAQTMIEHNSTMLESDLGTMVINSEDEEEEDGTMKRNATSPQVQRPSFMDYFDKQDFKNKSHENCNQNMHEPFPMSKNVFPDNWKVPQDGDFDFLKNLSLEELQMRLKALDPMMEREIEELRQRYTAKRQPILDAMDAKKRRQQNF", "experiment": "Kinase inhibitor specificity profiling (Reaction Biology Corporation)", "design": "% Enzyme Activity (relative to DMSO controls): concentration or dose not given beside the values", "conditions": "2 h, kinase MST2/STK3; read-out: % Enzyme Activity (relative to DMSO controls)"}, "[9]": {"target": "T10, panel of 370 protein kinases (Homo sapiens, UniProt O95747)", "T10 construct": "purchased Reaction Biology Corporation (assay service)", "experiment": "Kinase inhibitor specificity profiling (Reaction Biology Corporation)", "design": "% Enzyme Activity (relative to DMSO controls): concentration or dose not given beside the values", "conditions": "2 h, kinase OSR1/OXSR1; read-out: % Enzyme Activity (relative to DMSO controls)"}, "[10]": {"target": "T11, panel of 370 protein kinases (Homo sapiens, UniProt Q9UBE8)", "T11 construct": "purchased Reaction Biology Corporation (assay service)", "experiment": "Kinase inhibitor specificity profiling (Reaction Biology Corporation)", "design": "% Enzyme Activity (relative to DMSO controls): concentration or dose not given beside the values", "conditions": "2 h, kinase NLK; read-out: % Enzyme Activity (relative to DMSO controls)"}, "[11]": {"target": "T12, panel of 370 protein kinases (Homo sapiens, UniProt Q8IW41)", "T12 construct": "purchased Reaction Biology Corporation (assay service)", "experiment": "Kinase inhibitor specificity profiling (Reaction Biology Corporation)", "design": "% Enzyme Activity (relative to DMSO controls): concentration or dose not given beside the values", "conditions": "2 h, kinase MAPKAPK5/PRAK; read-out: % Enzyme Activity (relative to DMSO controls)"}, "[12]": {"target": "T13, panel of 370 protein kinases (Homo sapiens, UniProt P49840)", "T13 construct": "purchased Reaction Biology Corporation (assay service)", "experiment": "Kinase inhibitor specificity profiling (Reaction Biology Corporation)", "design": "% Enzyme Activity (relative to DMSO controls): concentration or dose not given beside the values", "conditions": "2 h, kinase GSK3a; read-out: % Enzyme Activity (relative to DMSO controls)"}, "[13]": {"target": "T14, panel of 370 protein kinases (Homo sapiens, UniProt O00141)", "T14 construct": "purchased Reaction Biology Corporation (assay service)", "T14 sequence (O00141 whole entry)": "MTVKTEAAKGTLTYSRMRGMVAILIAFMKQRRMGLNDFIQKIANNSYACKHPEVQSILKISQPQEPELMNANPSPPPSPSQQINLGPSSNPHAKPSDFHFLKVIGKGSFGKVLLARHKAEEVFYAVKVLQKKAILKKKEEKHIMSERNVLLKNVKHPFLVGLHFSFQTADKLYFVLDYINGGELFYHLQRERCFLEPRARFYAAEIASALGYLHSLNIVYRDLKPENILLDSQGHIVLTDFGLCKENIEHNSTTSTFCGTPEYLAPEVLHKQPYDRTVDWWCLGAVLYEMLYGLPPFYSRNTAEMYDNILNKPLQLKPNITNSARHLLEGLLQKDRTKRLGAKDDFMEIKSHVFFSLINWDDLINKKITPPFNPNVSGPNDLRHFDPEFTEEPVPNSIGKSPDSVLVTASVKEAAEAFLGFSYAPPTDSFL", "experiment": "Kinase inhibitor specificity profiling (Reaction Biology Corporation)", "design": "% Enzyme Activity (relative to DMSO controls): concentration or dose not given beside the values", "conditions": "2 h, kinase SGK1; read-out: % Enzyme Activity (relative to DMSO controls)"}, "[14]": {"target": "T15, panel of 370 protein kinases (Homo sapiens, UniProt O75676)", "T15 construct": "purchased Reaction Biology Corporation (assay service)", "T15 sequence (O75676 whole entry)": "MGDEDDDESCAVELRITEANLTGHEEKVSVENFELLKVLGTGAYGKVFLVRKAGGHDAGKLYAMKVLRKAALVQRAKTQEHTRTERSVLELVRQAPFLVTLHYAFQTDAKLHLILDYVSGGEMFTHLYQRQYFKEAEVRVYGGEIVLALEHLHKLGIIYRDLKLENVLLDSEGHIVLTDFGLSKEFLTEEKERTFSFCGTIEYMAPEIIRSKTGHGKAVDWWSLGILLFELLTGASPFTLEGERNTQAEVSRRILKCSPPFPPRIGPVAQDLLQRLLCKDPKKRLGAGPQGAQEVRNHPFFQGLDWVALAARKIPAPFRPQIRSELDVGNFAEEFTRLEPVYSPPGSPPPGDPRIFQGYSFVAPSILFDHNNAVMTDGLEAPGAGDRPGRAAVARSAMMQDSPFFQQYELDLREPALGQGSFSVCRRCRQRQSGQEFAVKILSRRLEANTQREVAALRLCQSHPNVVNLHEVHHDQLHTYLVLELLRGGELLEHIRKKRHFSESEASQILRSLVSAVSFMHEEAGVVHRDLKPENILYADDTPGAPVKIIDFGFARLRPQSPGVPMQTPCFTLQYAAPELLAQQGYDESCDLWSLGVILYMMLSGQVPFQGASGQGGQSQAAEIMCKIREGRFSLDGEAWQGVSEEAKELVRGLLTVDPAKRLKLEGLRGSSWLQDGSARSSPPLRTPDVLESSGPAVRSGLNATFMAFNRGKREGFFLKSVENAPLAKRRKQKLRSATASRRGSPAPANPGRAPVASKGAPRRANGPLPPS", "experiment": "Kinase inhibitor specificity profiling (Reaction Biology Corporation)", "design": "% Enzyme Activity (relative to DMSO controls): concentration or dose not given beside the values", "conditions": "2 h, kinase MSK2/RPS6KA4; read-out: % Enzyme Activity (relative to DMSO controls)"}, "[15]": {"target": "T16, panel of 370 protein kinases (Homo sapiens, UniProt P08581)", "T16 construct": "purchased Reaction Biology Corporation (assay service)", "T16 sequence (P08581 25-1390)": "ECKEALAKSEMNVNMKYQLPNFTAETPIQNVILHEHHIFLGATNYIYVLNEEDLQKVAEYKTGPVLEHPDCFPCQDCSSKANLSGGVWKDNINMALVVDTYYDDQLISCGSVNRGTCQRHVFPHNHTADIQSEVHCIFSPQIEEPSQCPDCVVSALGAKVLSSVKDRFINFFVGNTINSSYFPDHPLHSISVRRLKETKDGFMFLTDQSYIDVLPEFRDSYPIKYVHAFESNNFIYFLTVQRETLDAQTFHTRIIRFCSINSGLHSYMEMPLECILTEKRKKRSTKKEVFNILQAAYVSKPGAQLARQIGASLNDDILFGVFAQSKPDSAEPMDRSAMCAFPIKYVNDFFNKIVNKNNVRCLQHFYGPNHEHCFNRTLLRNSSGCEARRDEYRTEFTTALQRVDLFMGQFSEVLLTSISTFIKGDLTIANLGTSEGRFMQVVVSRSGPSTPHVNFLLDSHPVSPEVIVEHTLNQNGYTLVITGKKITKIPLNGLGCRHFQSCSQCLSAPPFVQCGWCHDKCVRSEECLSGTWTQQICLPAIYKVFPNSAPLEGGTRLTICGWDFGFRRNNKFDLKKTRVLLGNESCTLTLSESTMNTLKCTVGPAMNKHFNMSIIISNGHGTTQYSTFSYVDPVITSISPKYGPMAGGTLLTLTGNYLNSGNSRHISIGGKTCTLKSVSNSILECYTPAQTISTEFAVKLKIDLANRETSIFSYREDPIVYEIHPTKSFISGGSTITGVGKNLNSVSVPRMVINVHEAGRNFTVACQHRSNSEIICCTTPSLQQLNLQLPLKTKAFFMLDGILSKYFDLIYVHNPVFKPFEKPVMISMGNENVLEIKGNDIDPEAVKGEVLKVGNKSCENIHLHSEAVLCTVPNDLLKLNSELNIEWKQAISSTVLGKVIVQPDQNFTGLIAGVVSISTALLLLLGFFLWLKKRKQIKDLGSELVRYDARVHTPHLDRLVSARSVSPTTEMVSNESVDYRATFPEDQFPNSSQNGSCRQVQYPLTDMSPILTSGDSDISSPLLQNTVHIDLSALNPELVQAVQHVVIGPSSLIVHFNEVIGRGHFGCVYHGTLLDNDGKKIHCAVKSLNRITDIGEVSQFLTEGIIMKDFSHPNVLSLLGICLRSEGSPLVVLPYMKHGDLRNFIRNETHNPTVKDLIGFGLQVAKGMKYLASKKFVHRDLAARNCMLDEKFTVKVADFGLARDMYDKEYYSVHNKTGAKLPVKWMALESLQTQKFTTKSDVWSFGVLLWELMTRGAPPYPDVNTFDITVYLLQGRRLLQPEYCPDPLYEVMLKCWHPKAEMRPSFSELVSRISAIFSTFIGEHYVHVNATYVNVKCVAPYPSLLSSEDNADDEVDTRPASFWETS", "experiment": "Kinase inhibitor specificity profiling (Reaction Biology Corporation)", "design": "% Enzyme Activity (relative to DMSO controls): concentration or dose not given beside the values", "conditions": "kinase c-MET"}},
  "note": "Where “and” joins values, the source holds several entries; their conditions need not be identical. Equal entries are not always repeated.",
  "data": [
    {"smiles": "CCN1CCN(C(=O)c2ccc(Nc3ncc(F)c(-c4ccc5nc(N(C)C)sc5c4)n3)nc2)CC1", "note": "[YK-2-69]", "values": [
      {"measurement": "IC50", "setting": "DYRK4", "value": "> 1", "unit": "µM"},
      {"measurement": "% Inhibition DYRK4", "setting": "DYRK4; 0.000762079 µM", "value": 1.66, "unit": "%"},
      {"measurement": "% Inhibition DYRK4", "setting": "DYRK4; 0.00228624 µM", "value": "-2.93% and -3.51%"},
      {"measurement": "% Inhibition DYRK4", "setting": "DYRK4; 0.00685871 µM", "value": 3.37, "unit": "%"},
      {"measurement": "% Inhibition DYRK4", "setting": "DYRK4; 0.0205761 µM", "value": 5.66, "unit": "%"},
      {"measurement": "% Inhibition DYRK4", "setting": "DYRK4; 0.0617284 µM", "value": 18.67, "unit": "%"},
      {"measurement": "% Inhibition DYRK4", "setting": "DYRK4; 0.185185 µM", "value": 25.42, "unit": "%"},
      {"measurement": "% Inhibition DYRK4", "setting": "DYRK4; 0.555556 µM", "value": 42.15, "unit": "%"},
      {"measurement": "% Inhibition DYRK4", "setting": "DYRK4; 1.66667 µM", "value": 56.81, "unit": "%"},
      {"measurement": "% Inhibition DYRK4", "setting": "DYRK4; 5 µM", "value": 64.30, "unit": "%"},
      {"measurement": "inhibition at 0.000762079 µM", "setting": "DYRK4; read-out: % Inhibition DYRK4, 0.000762079 µM, duplicates", "value": 2.99, "unit": "%"},
      {"measurement": "inhibition at 0.00685871 µM", "setting": "DYRK4; read-out: % Inhibition DYRK4, 0.00685871 µM, duplicates", "value": 4.77, "unit": "%"},
      {"measurement": "inhibition at 0.0205761 µM", "setting": "DYRK4; read-out: % Inhibition DYRK4, 0.0205761 µM, duplicates", "value": 7.57, "unit": "%"},
      {"measurement": "inhibition at 0.0617284 µM", "setting": "DYRK4; read-out: % Inhibition DYRK4, 0.0617284 µM, duplicates", "value": 21.2, "unit": "%"},
      {"measurement": "inhibition at 0.185185 µM", "setting": "DYRK4; read-out: % Inhibition DYRK4, 0.185185 µM, duplicates", "value": 29.7, "unit": "%"},
      {"measurement": "inhibition at 0.555556 µM", "setting": "DYRK4; read-out: % Inhibition DYRK4, 0.555556 µM, duplicates", "value": 42.1, "unit": "%"},
      {"measurement": "inhibition at 1.66667 µM", "setting": "DYRK4; read-out: % Inhibition DYRK4, 1.66667 µM, duplicates", "value": 54.7, "unit": "%"},
      {"measurement": "inhibition at 5 µM", "setting": "DYRK4; read-out: % Inhibition DYRK4, 5 µM, duplicates", "value": 64.8, "unit": "%"},
      {"measurement": "selectivity over DYRK4", "setting": "DYRK4; vs DYRK2", "value": "more than 100 fold"},
      {"measurement": "remaining activity at 1 µM", "setting": "[1]", "value": 39.9, "unit": "%"},
      {"measurement": "remaining activity at 1 µM", "setting": "[2]", "value": 95.6, "unit": "%"},
      {"measurement": "remaining activity at 1 µM", "setting": "[3]", "value": 98.2, "unit": "%"},
      {"measurement": "remaining activity at 1 µM", "setting": "[4]", "value": 104, "unit": "%"},
      {"measurement": "remaining activity at 1 µM", "setting": "[5]", "value": 93.1, "unit": "%"},
      {"measurement": "remaining activity at 1 µM", "setting": "[6]", "value": 115, "unit": "%"},
      {"measurement": "remaining activity at 1 µM", "setting": "[7]", "value": 77.7, "unit": "%"},
      {"measurement": "remaining activity at 1 µM", "setting": "[8]", "value": 98.9, "unit": "%"},
      {"measurement": "remaining activity at 1 µM", "setting": "[9]", "value": 89.2, "unit": "%"},
      {"measurement": "remaining activity at 1 µM", "setting": "[10]", "value": 97, "unit": "%"},
      {"measurement": "remaining activity at 1 µM", "setting": "[11]", "value": 98.5, "unit": "%"},
      {"measurement": "remaining activity at 1 µM", "setting": "[12]", "value": 42.3, "unit": "%"},
      {"measurement": "remaining activity at 1 µM", "setting": "[13]", "value": 60.9, "unit": "%"},
      {"measurement": "remaining activity at 1 µM", "setting": "[14]", "value": 96.2, "unit": "%"},
      {"measurement": "% Enzyme Activity (relative to DMSO controls)", "setting": "[15]", "value": "79.77% and 77.94%"}
    ]}
  ]
}
